{"source": "patent US20230041563A1", "about": "“N-(1,3,4-OXADIAZOL-2-YL)ARYLCARBOXAMIDES OR SALTS THEREOF, PREPARATION METHODS, HERBICIDAL COMPOSITIONS AND USES THEREOF” (priority 2018, published 2023)", "assay_in_all_cases": "Weeding effect in post-emergence stage (greenhouse pot spray)", "type_in_all_cases": "in vivo", "key": {"Digitaria sanguinalis": {"tested_on": "Digitaria sanguinalis", "how_it_was_run": "(§1)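 Fresh-weight control rate was assessed 3 weeks after post-emergence spray-tower application at doses of 500–15 g a.i./ha, triplicate. Weeds were treated at the 2–3 leaf stage, 2 weeks post-sowing, using acetone solutions with Tween 80 plus 1.5 L/ha methyl oleate emulsifiable concentrate.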"}, "Abutilon theophrasti": {"tested_on": "Abutilon theophrasti", "how_it_was_run": "as §1"}, "Echinochloa crusgalli": {"tested_on": "Echinochloa crusgalli", "how_it_was_run": "as §1"}, "Stellaria media": {"tested_on": "Stellaria media", "text": "(§2) The activity level criteria for plant damage (i.e., growth control rate) are as follows:\n(§3) The above growth control rates are fresh weight control rates.\n(§4) Experiment on weeding effect in post-emergence stage: monocotyledonous and dicotyledonous weed seeds (Descurainia sophia, Capsella bursa-pastoris, Abutilon theophrasti, Galium aparine, Stellaria media, Lithospermum arvense, rorippa indica, Alopecurus aequalis, Beckmannia syzigachne, Sclerochloa dura, Phleum paniculatum, Bromus japonicus, Aegilops tauschii, Phalaris arundinacea, Amaranthus retroflexus, Chenopodiaceae, Commelina communis, Sonchus arvensis, convolvulus arvensis, Cirsium setosum, Solanum nigrum, Acalypha australis, Digitaria sanguinalis, Echinochloa crusgalli, Setaria viridis, Setaria glauca, Leptochloa chinensis, Monochoria vaginalis, Sagittaria trifolia, Scirpus juncoides, Cyperus rotundus, Cyperus iria, Cyperus difformis, Fimbristylis, Portulaca oleracea, Xanthium sibiricum, Pharbitis nil) and major crop seeds (wheat, corn, rice, soybean, cotton, oilseed rape, millet, sorghum, potato, sesame, ricinus) were placed in plastic pots filled with soil, then covered with 0.5-2 cm of soil, allowed to grow in a good greenhouse environment. After 2 weeks of sowing, the test plants were treated in the 2 to 3 leaf stage. The tested compounds of the present invention were respectively dissolved in acetone, then added with Tween 80 and 1.5 liter/ha of emulsifiable concentrate of methyl oleate as synergist, diluted with a certain amount of water to obtain a solution with a certain concentration, and sprayed with a spray tower onto the plants. After the application, the plants were cultured for 3 weeks in the greenhouse, and then the experimental results of the weeding were counted. The doses of the used compounds were 500, 250, 125, 60, 15 g a.i./ha, and the averages were obtained by repeating for three times."}, "Amaranthus retroflexus": {"tested_on": "Amaranthus retroflexus", "text": "as §2, §3, §4"}}, "data": [{"smiles": "CCC(C)C[S+]([O-])c1c(C(F)(F)F)ccc(C(=O)Nc2nnc(C)o2)c1F", "note": "(mixture of isomers) [Compound 1-29]", "values": [{"measurement": "Digitaria sanguinalis (activity level)", "setting": "Digitaria sanguinalis; Table 2, dose 500 g a.i./ha", "result": "5 (Level 5: growth control rate is above 85%)"}, {"measurement": "Abutilion theophrasti (activity level)", "setting": "Abutilon theophrasti; Table 2, dose 500 g a.i./ha", "result": "5 (Level 5: growth control rate is above 85%)"}, {"measurement": "Echinochloa crusgah (activity level)", "setting": "Echinochloa crusgalli; Table 2, dose 500 g a.i./ha", "result": "5 (Level 5: growth control rate is above 85%)"}, {"measurement": "Stellaria media (activity level)", "setting": "Stellaria media; Table 2, dose 500 g a.i./ha", "result": "5 (Level 5: growth control rate is above 85%)"}, {"measurement": "Amaranthus retroflexus (activity level)", "setting": "Amaranthus retroflexus; Table 2, dose 500 g a.i./ha", "result": "5 (Level 5: growth control rate is above 85%)"}]}, {"smiles": "Cc1nnc(NC(=O)c2ccc(C(F)(F)F)c(SC(C)C)c2F)o1", "note": "[Compound 1-10]", "values": [{"measurement": "Abutilion theophrasti (activity level)", "setting": "Abutilon theophrasti; Table 2, dose 250 g a.i./ha", "result": "5 (Level 5: growth control rate is above 85%)"}, {"measurement": "Echinochloa crusgah (activity level)", "setting": "Echinochloa crusgalli; Table 2, dose 250 g a.i./ha", "result": "5 (Level 5: growth control rate is above 85%)"}, {"measurement": "Stellaria media (activity level)", "setting": "Stellaria media; Table 2, dose 250 g a.i./ha", "result": "5 (Level 5: growth control rate is above 85%)"}, {"measurement": "Amaranthus retroflexus (activity level)", "setting": "Amaranthus retroflexus; Table 2, dose 250 g a.i./ha", "result": "5 (Level 5: growth control rate is above 85%)"}]}, {"smiles": "Cc1nnc(NC(=O)c2ccc(C(F)(F)F)c(S(=O)(=O)C(C)C)c2F)o1", "note": "[Compound 1-12]", "values": [{"measurement": "Digitaria sanguinalis (activity level)", "setting": "Digitaria sanguinalis; Table 2, dose 250 g a.i./ha", "result": "5 (Level 5: growth control rate is above 85%)"}, {"measurement": "Abutilion theophrasti (activity level)", "setting": "Abutilon theophrasti; Table 2, dose 250 g a.i./ha", "result": "5 (Level 5: growth control rate is above 85%)"}, {"measurement": "Echinochloa crusgah (activity level)", "setting": "Echinochloa crusgalli; Table 2, dose 250 g a.i./ha", "result": "5 (Level 5: growth control rate is above 85%)"}, {"measurement": "Stellaria media (activity level)", "setting": "Stellaria media; Table 2, dose 250 g a.i./ha", "result": "5 (Level 5: growth control rate is above 85%)"}, {"measurement": "Amaranthus retroflexus (activity level)", "setting": "Amaranthus retroflexus; Table 2, dose 250 g a.i./ha", "result": "5 (Level 5: growth control rate is above 85%)"}]}, {"smiles": "CCCCS(=O)(=O)c1c(C(F)(F)F)ccc(C(=O)Nc2nnc(C)o2)c1F", "note": "[Compound 1-15]", "values": [{"measurement": "Abutilion theophrasti (activity level)", "setting": "Abutilon theophrasti; Table 2, dose 250 g a.i./ha", "result": "5 (Level 5: growth control rate is above 85%)"}, {"measurement": "Stellaria media (activity level)", "setting": "Stellaria media; Table 2, dose 250 g a.i./ha", "result": "5 (Level 5: growth control rate is above 85%)"}, {"measurement": "Amaranthus retroflexus (activity level)", "setting": "Amaranthus retroflexus; Table 2, dose 250 g a.i./ha", "result": "5 (Level 5: growth control rate is above 85%)"}]}, {"smiles": "Cc1nnc(NC(=O)c2ccc(C(F)(F)F)c(SCC(F)F)c2F)o1", "note": "[Compound 1-49]", "values": [{"measurement": "Digitaria sanguinalis (activity level)", "setting": "Digitaria sanguinalis; Table 2, dose 500 g a.i./ha", "result": "5 (Level 5: growth control rate is above 85%)"}, {"measurement": "Abutilion theophrasti (activity level)", "setting": "Abutilon theophrasti; Table 2, dose 500 g a.i./ha", "result": "5 (Level 5: growth control rate is above 85%)"}, {"measurement": "Echinochloa crusgah (activity level)", "setting": "Echinochloa crusgalli; Table 2, dose 500 g a.i./ha", "result": "5 (Level 5: growth control rate is above 85%)"}, {"measurement": "Stellaria media (activity level)", "setting": "Stellaria media; Table 2, dose 500 g a.i./ha", "result": "5 (Level 5: growth control rate is above 85%)"}, {"measurement": "Amaranthus retroflexus (activity level)", "setting": "Amaranthus retroflexus; Table 2, dose 500 g a.i./ha", "result": "5 (Level 5: growth control rate is above 85%)"}]}, {"smiles": "Cc1nnc(NC(=O)c2ccc(C(F)(F)F)c(SCC(F)(F)F)c2F)o1", "note": "[Compound 1-50]", "values": [{"measurement": "Digitaria sanguinalis (activity level)", "setting": "Digitaria sanguinalis; Table 2, dose 500 g a.i./ha", "result": "5 (Level 5: growth control rate is above 85%)"}, {"measurement": "Abutilion theophrasti (activity level)", "setting": "Abutilon theophrasti; Table 2, dose 500 g a.i./ha", "result": "5 (Level 5: growth control rate is above 85%)"}, {"measurement": "Echinochloa crusgah (activity level)", "setting": "Echinochloa crusgalli; Table 2, dose 500 g a.i./ha", "result": "5 (Level 5: growth control rate is above 85%)"}, {"measurement": "Stellaria media (activity level)", "setting": "Stellaria media; Table 2, dose 500 g a.i./ha", "result": "5 (Level 5: growth control rate is above 85%)"}, {"measurement": "Amaranthus retroflexus (activity level)", "setting": "Amaranthus retroflexus; Table 2, dose 500 g a.i./ha", "result": "5 (Level 5: growth control rate is above 85%)"}]}, {"smiles": "Cc1nnc(NC(=O)c2ccc(C(F)(F)F)c(SCCC(F)(F)F)c2F)o1", "note": "[Compound 1-51]", "values": [{"measurement": "Digitaria sanguinalis (activity level)", "setting": "Digitaria sanguinalis; Table 2, dose 500 g a.i./ha", "result": "5 (Level 5: growth control rate is above 85%)"}, {"measurement": "Abutilion theophrasti (activity level)", "setting": "Abutilon theophrasti; Table 2, dose 500 g a.i./ha", "result": "5 (Level 5: growth control rate is above 85%)"}, {"measurement": "Echinochloa crusgah (activity level)", "setting": "Echinochloa crusgalli; Table 2, dose 500 g a.i./ha", "result": "5 (Level 5: growth control rate is above 85%)"}, {"measurement": "Stellaria media (activity level)", "setting": "Stellaria media; Table 2, dose 500 g a.i./ha", "result": "5 (Level 5: growth control rate is above 85%)"}, {"measurement": "Amaranthus retroflexus (activity level)", "setting": "Amaranthus retroflexus; Table 2, dose 500 g a.i./ha", "result": "5 (Level 5: growth control rate is above 85%)"}]}, {"smiles": "Cc1nnc(NC(=O)c2ccc(C(F)(F)F)c(S(=O)(=O)CCC(F)(F)F)c2F)o1", "note": "[Compound 1-53]", "values": [{"measurement": "Digitaria sanguinalis (activity level)", "setting": "Digitaria sanguinalis; Table 2, dose 500 g a.i./ha", "result": "5 (Level 5: growth control rate is above 85%)"}, {"measurement": "Abutilion theophrasti (activity level)", "setting": "Abutilon theophrasti; Table 2, dose 500 g a.i./ha", "result": "5 (Level 5: growth control rate is above 85%)"}, {"measurement": "Echinochloa crusgah (activity level)", "setting": "Echinochloa crusgalli; Table 2, dose 500 g a.i./ha", "result": "5 (Level 5: growth control rate is above 85%)"}, {"measurement": "Stellaria media (activity level)", "setting": "Stellaria media; Table 2, dose 500 g a.i./ha", "result": "5 (Level 5: growth control rate is above 85%)"}, {"measurement": "Amaranthus retroflexus (activity level)", "setting": "Amaranthus retroflexus; Table 2, dose 500 g a.i./ha", "result": "5 (Level 5: growth control rate is above 85%)"}]}, {"smiles": "Cc1nnc(NC(=O)c2ccc(C(F)(F)F)c(SCCO)c2F)o1", "note": "[Compound 1-59]", "values": [{"measurement": "Digitaria sanguinalis (activity level)", "setting": "Digitaria sanguinalis; Table 2, dose 500 g a.i./ha", "result": "5 (Level 5: growth control rate is above 85%)"}, {"measurement": "Abutilion theophrasti (activity level)", "setting": "Abutilon theophrasti; Table 2, dose 500 g a.i./ha", "result": "5 (Level 5: growth control rate is above 85%)"}, {"measurement": "Echinochloa crusgah (activity level)", "setting": "Echinochloa crusgalli; Table 2, dose 500 g a.i./ha", "result": "5 (Level 5: growth control rate is above 85%)"}, {"measurement": "Stellaria media (activity level)", "setting": "Stellaria media; Table 2, dose 500 g a.i./ha", "result": "5 (Level 5: growth control rate is above 85%)"}, {"measurement": "Amaranthus retroflexus (activity level)", "setting": "Amaranthus retroflexus; Table 2, dose 500 g a.i./ha", "result": "5 (Level 5: growth control rate is above 85%)"}]}]}
